From ChEMBL document CHEMBL1201862, “PubChem BioAssay data set” (2004)
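Growth conditions: 96-well plates. Treatment: test compound, 48 hours, 5 concentrations. Analysis: linear interpolation between bracketing concentrations; unreached endpoints set to highest concentration. GI50 = concentration required for 50% inhibition of growth.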 Calls of active or inactive are those of the source. No stated cut-off is given here; in the data, active = GI50 up to about 1.1 µM and inactive = higher.

Key:
Test in all cases: growth of human tumour cells (NCI), 48 h
786-0 = system: 786-0
ACHN = system: ACHN
BT-549 = system: BT-549
EKVX = system: EKVX
HCC 2998 = system: HCC 2998
HCT-15 = system: HCT-15
HOP-62 = system: HOP-62
HOP-92 = system: HOP-92
Hs-578T = system: Hs-578T
K562 = system: K562
NCI-H460 = system: NCI-H460
PC-3 = system: PC-3
RXF 393 = system: RXF 393
SF-268 = system: SF-268
SK-OV-3 = system: SK-OV-3
SW-620 = system: SW-620
T47D = system: T47D
TK-10 = system: TK-10
SR = system: SR

Row | SMILES | GI50 (786-0) | GI50 (ACHN) | GI50 (BT-549) | GI50 (EKVX) | GI50 (HCC 2998) | GI50 (HCT-15) | GI50 (HOP-62) | GI50 (HOP-92) | GI50 (Hs-578T) | GI50 (K562) | GI50 (NCI-H460) | GI50 (PC-3) | GI50 (RXF 393) | GI50 (SF-268) | GI50 (SK-OV-3) | GI50 (SW-620) | GI50 (T47D) | GI50 (TK-10) | GI50 (SR)
1 | CC(=O)Nc1ccc(C(=O)N[C@@H]2C(=O)N3[C@@H]2SC(C)(C)[C@@H]3C(=O)O)cn1 | > 100 µM (inactive) | > 100 µM (inactive) | > 100 µM (inactive) | > 100 µM (inactive) | > 100 µM (inactive) | > 100 µM | > 100 µM (inactive) | > 100 µM (inactive) | > 100 µM (inactive) | > 100 µM (inactive) | > 100 µM (inactive) | > 100 µM (inactive) | > 100 µM (inactive) | > 100 µM (inactive) | > 100 µM (inactive) | > 100 µM (inactive) | > 100 µM (inactive) | > 100 µM (inactive) | –
2 | CC1(C)C(CC(=O)O)CCCC1CC(=O)O (stereo not given) | > 100 µM (inactive) | > 100 µM (inactive) | > 100 µM (inactive) | > 100 µM (inactive) | – | > 100 µM | > 100 µM (inactive) | – | > 100 µM (inactive) | > 100 µM (inactive) | – | > 100 µM (inactive) | > 100 µM (inactive) | – | > 100 µM (inactive) | > 100 µM (inactive) | > 100 µM (inactive) | > 100 µM (inactive) | > 100 µM (inactive)
3 | Nc1ccc(CCN2CCN(CCCc3ccccc3)CC2)cc1 | 44.3 µM (inactive) | > 100 µM (inactive) | 80.7 µM (inactive) | > 100 µM (inactive) | 34.4 µM (inactive) | 21.7 µM | > 100 µM (inactive) | – | > 100 µM (inactive) | 24.2 µM (inactive) | 63.4 µM (inactive) | > 100 µM (inactive) | – | > 100 µM (inactive) | > 100 µM (inactive) | > 100 µM (inactive) | 14.7 µM (inactive) | > 100 µM (inactive) | 27.6 µM (inactive)
4 | COc1ccc(C2NC(=O)Nc3c2c(=O)oc2c3ccc3ccccc32)cc1 (stereo not given) | 67 µM (inactive) | 51.6 µM (inactive) | 41.6 µM (inactive) | 23.7 µM (inactive) | – | 46.1 µM | 61.4 µM (inactive) | 35.2 µM (inactive) | 41.4 µM (inactive) | 48.1 µM (inactive) | 50.8 µM (inactive) | 38.2 µM (inactive) | 42 µM (inactive) | 56.4 µM (inactive) | > 100 µM (inactive) | > 100 µM (inactive) | 31.1 µM (inactive) | 74.3 µM (inactive) | 50 µM (inactive)
5 | OCC(O)CNc1ncnc2ccccc12 (stereo not given) | > 100 µM (inactive) | > 100 µM (inactive) | > 100 µM (inactive) | > 100 µM (inactive) | > 100 µM (inactive) | > 100 µM | > 100 µM (inactive) | > 100 µM (inactive) | > 100 µM (inactive) | > 100 µM (inactive) | > 100 µM (inactive) | > 100 µM (inactive) | > 100 µM (inactive) | > 100 µM (inactive) | > 100 µM (inactive) | > 100 µM (inactive) | > 100 µM (inactive) | > 100 µM (inactive) | –
6 | O=C(O)c1ccccc1Sc1ccccc1[N+](=O)[O-] | > 100 µM (inactive) | > 100 µM (inactive) | > 100 µM (inactive) | > 100 µM (inactive) | > 100 µM (inactive) | > 100 µM | > 100 µM (inactive) | > 100 µM (inactive) | > 100 µM (inactive) | > 100 µM (inactive) | > 100 µM (inactive) | > 100 µM (inactive) | > 100 µM (inactive) | > 100 µM (inactive) | > 100 µM (inactive) | > 100 µM (inactive) | > 100 µM (inactive) | > 100 µM (inactive) | –
7 | COc1cccc(N2C(=O)CS(=O)(=O)C2c2cccc(Oc3ccccc3)c2)c1 (stereo not given) | 16.9 µM (inactive) | 20.1 µM (inactive) | 20.1 µM (inactive) | 17 µM (inactive) | – | 5.27 µM | 25.2 µM (inactive) | 12.7 µM (inactive) | 21.8 µM (inactive) | 3.6 µM (inactive) | 13.6 µM (inactive) | 9.98 µM (inactive) | 16.5 µM (inactive) | 24.4 µM (inactive) | 38 µM (inactive) | 15.6 µM (inactive) | 19.1 µM (inactive) | 16.5 µM (inactive) | 3.13 µM (inactive)
8 | O=C(O)Cc1cccc2c(=O)c3ccccc3oc12 | > 100 µM (inactive) | > 100 µM (inactive) | > 100 µM (inactive) | > 100 µM (inactive) | 22 µM (inactive) | 21.1 µM | > 100 µM (inactive) | > 100 µM (inactive) | > 100 µM (inactive) | > 100 µM (inactive) | > 100 µM (inactive) | > 100 µM (inactive) | – | > 100 µM (inactive) | 17.7 µM (inactive) | > 100 µM (inactive) | 19.1 µM (inactive) | > 100 µM (inactive) | > 100 µM (inactive)
